TGI data for 17 compounds are collected here from PubChem BioAssay (NCI).

Among the test systems are HL-60(TB) leukemia; HCT-15 colon; SF-539 CNS; ACHN renal; A498 renal; MALME-3M melanoma; M14 melanoma; HCT-116 colon; MDA-MB-435; T-47D breast.
What all share (test): inhibition of tumour cell growth, NCI panel, 48 h

Structures are written as SMILES.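 Each compound was tested at five concentrations against cells in 96-well plates for 48 hours. TGI is the concentration that stops growth completely.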 A value given as a limit tells only on which side of the number the result lay.

Consider `CCN(CC)CCCNC(=O)c1ccc([N+](=O)[O-])cc1O`, for which the TGI in the test on HL-60(TB) leukemia, with HCT-15 colon, with SF-539 CNS, with ACHN renal, with A498 renal and in the test on MALME-3M melanoma was over 100 µM throughout. The same compound showed a TGI in the test with M14 melanoma of over 100 µM.

Turning to `C=Cc1ccc(C)[n+](C[Si](C)(C)O[Si](C)(C)C[n+]2cc(C=C)ccc2C)c1`, the TGI in the test with HL-60(TB) leukemia, in the test with SF-539 CNS, in the test on ACHN renal, with MALME-3M melanoma, with HCT-116 colon and in the test on M14 melanoma was over 100 µM throughout.

Regarding `N#CC1=C(c2ccccc2)NNC(c2ccc(Cl)cc2)CC1=O` (configuration not stated), the TGI with HL-60(TB) leukemia, in the test with HCT-15 colon, with ACHN renal, in the test on A498 renal, with MALME-3M melanoma and with HCT-116 colon was over 100 µM in each case. Besides, the TGI in the test with M14 melanoma was 68.9 µM.

For `Cn1ccnc1C(O)(c1nccn1C)c1nccn1C`, the TGI in the test on HL-60(TB) leukemia, in the test on ACHN renal, in the test on MALME-3M melanoma and in the test with M14 melanoma was over 100 µM in each case.

Regarding `CC(C)=CCC/C(C)=C/COC(C)(C)C1=CCC(C)CC1` (configuration not stated) (tested in a mixture with another compound), the TGI with HL-60(TB) leukemia is 50.9 µM; in the test with HCT-15 colon, over 100 µM; in the test with SF-539 CNS, 29.3 µM; in the test on ACHN renal, over 100 µM; in the test with A498 renal it was over 100 µM; in the test on MALME-3M melanoma, over 100 µM. Further, the TGI in the test with MDA-MB-435, with HCT-116 colon and with M14 melanoma was over 100 µM in each case.

In the case of `O=C1NCCS(=O)(=O)N[C@@H](CC2=CC=CCC2)C(=O)N2CCCC12` (some centres not stated), the TGI in the test on HL-60(TB) leukemia, in the test on HCT-15 colon, with SF-539 CNS, in the test on ACHN renal, with A498 renal and in the test on MALME-3M melanoma was over 100 µM in each case. Also, the TGI in the test on HCT-116 colon and with M14 melanoma was over 100 µM throughout.

Take `CCOC(=O)c1c(-c2ccccc2)c(-c2ccccc2)cn1C`: the TGI in the test with HL-60(TB) leukemia, with HCT-15 colon, in the test on SF-539 CNS, in the test on ACHN renal, in the test on MALME-3M melanoma and with MDA-MB-435 was over 10 µM throughout. The same compound registered a TGI with M14 melanoma of over 10 µM.

Consider `CC1CN=C(N(C(=O)Nc2ccc(F)c(Cl)c2)c2ccccc2)S1` (configuration not stated), for which the TGI was over 100 µM with T-47D breast; 75.3 µM in the test with HCT-15 colon; over 100 µM in the test with SF-539 CNS; 87.9 µM in the test with ACHN renal; 62.1 µM with A498 renal; 78.5 µM with MALME-3M melanoma. In addition, the TGI in the test on HCT-116 colon stood at 67.8 µM; in the test on M14 melanoma it was 75.5 µM.

Turning to `COc1ccc(-c2c3c([nH]c(=S)c2C#N)CC(C)(C)CC3=O)cc1`, the TGI with HL-60(TB) leukemia, in the test with T-47D breast, in the test with HCT-15 colon, with SF-539 CNS, in the test with ACHN renal and in the test on A498 renal was over 100 µM each time. In addition, the TGI in the test with MALME-3M melanoma, in the test on HCT-116 colon and in the test on M14 melanoma was over 100 µM in each case.

With `S=C(/N=c1\sc(Nc2ccc(Cl)cc2)nc2sc3c(c12)CCN(N1CCc2c(sc4nc(Nc5ccc(Cl)cc5)s/c(=N\C(=S)Nc5ccc(Cl)cc5)c24)C1)C3)Nc1ccc(Cl)cc1`, the TGI with HCT-15 colon was over 100 µM; in the test with SF-539 CNS, 35.6 µM; in the test on ACHN renal, over 100 µM; with MALME-3M melanoma, over 100 µM; in the test on HCT-116 colon it was 31.7 µM; in the test on M14 melanoma, over 100 µM.

Consider `O=C(CN(c1ccccc1)c1ccccc1)N1c2ccccc2C2C=CC=CC21` (configuration not stated), for which the TGI in the test with HL-60(TB) leukemia is 25.7 µM; with HCT-15 colon, 32.1 µM; with SF-539 CNS, 43.8 µM; with ACHN renal it was over 59.1 µM; with A498 renal, 77.4 µM; in the test on MALME-3M melanoma it was 47.1 µM. Moreover, the TGI in the test with HCT-116 colon was 45.2 µM; with M14 melanoma, over 57.3 µM.

As to `O=C1Sc2ccccc2C(=O)N2CSCC12` (configuration not stated), the TGI in the test with HL-60(TB) leukemia, in the test with SF-539 CNS, with ACHN renal, with MALME-3M melanoma, in the test with HCT-116 colon and in the test with M14 melanoma was over 100 µM throughout.

For the compound `Cc1cn([C@@H]2C[C@H](CO)[C@@H](O)C2)c(=O)[nH]c1=O`, the TGI in the test on HL-60(TB) leukemia, in the test on HCT-15 colon, with SF-539 CNS, with ACHN renal, in the test with MALME-3M melanoma and in the test with HCT-116 colon was over 100 µM throughout. In the test on M14 melanoma, this compound gave a TGI of over 100 µM.

Turning to `O=C(NC(COC(=O)C(Cc1ccccc1)NC(=O)c1ccccc1)Cc1ccccc1)c1ccccc1` (configuration not stated), the TGI in the test on HL-60(TB) leukemia, in the test with HCT-15 colon, in the test with SF-539 CNS, in the test with ACHN renal, in the test with A498 renal and in the test with MALME-3M melanoma was over 50 µM each time. The TGI in the test on MDA-MB-435 and with M14 melanoma was over 50 µM throughout.

Consider `CSC(=Nc1ccccc1)N(c1ccccc1)c1nc(=[N+](C)C)ss1`, for which the TGI in the test with HL-60(TB) leukemia amounted to 3.2 µM; with HCT-15 colon it was 13.7 µM; with SF-539 CNS, 14.8 µM; in the test with ACHN renal, 16.9 µM; in the test with A498 renal, 27.9 µM; in the test on MALME-3M melanoma, 22.6 µM. Further, the values for the TGI in the test with HCT-116 colon and in the test with M14 melanoma were 12 µM and 2.5 µM, respectively.

Take `COc1ccc(-c2oc(/C=N/NC(N)=S)c([N+](=O)[O-])c2-c2ccc(OC)c(OC)c2)cc1OC`: the TGI in the test on HL-60(TB) leukemia is 55 µM; in the test on HCT-15 colon, over 100 µM; in the test on SF-539 CNS, 67.6 µM; in the test on ACHN renal, 76.3 µM; in the test on MALME-3M melanoma, 35.9 µM; in the test on HCT-116 colon it was 41.1 µM. The TGI in the test on M14 melanoma amounted to 67.9 µM.

As to `COc1ccc(CC2c3c(cc(OC)c(OC)c3OC)CCN2C)cc1OC` (configuration not stated), the TGI with HCT-15 colon, with SF-539 CNS, in the test with ACHN renal, with A498 renal, in the test with MALME-3M melanoma and with HCT-116 colon was over 100 µM throughout. The compound further showed a TGI in the test with M14 melanoma of over 100 µM.
